These results are taken from patent US20220363719A1, “Reverse Amide-Linked Melanocortin Receptor-Specific Cyclic Peptides” (Palatin Technologies, Inc., priority 2020, published 2022).

Where a SMILES comes first, the peptide text is derived from it. Bridges are numbered along the chain shown (N, C = ends). [ ]: non-standard residue; d: D form. The star is where a group is joined. ξ: configuration not given here. d1Nal = N[C@H](Cc1cccc2ccccc12)C(=O)O; Nle = CCCC[C@H](N)C(=O)O; Dab = NCC[C@H](N)C(=O)O; ξHyp = O=C(O)C1CC(O)CN1; Dap = NC[C@H](N)C(=O)O; Hexanoyl = CCCCCC(=O)*; Ava = NCCCCC(=O)O; Bn = c1ccc(C*)cc1; βAla = NCCC(=O)O

Assay type in all cases: cell-based
The target of test [1] is T1, hMC5r (Homo sapiens, UniProt P33032).
T1 construct: Eurofins CEREP SA
T1 sequence (P33032 whole entry): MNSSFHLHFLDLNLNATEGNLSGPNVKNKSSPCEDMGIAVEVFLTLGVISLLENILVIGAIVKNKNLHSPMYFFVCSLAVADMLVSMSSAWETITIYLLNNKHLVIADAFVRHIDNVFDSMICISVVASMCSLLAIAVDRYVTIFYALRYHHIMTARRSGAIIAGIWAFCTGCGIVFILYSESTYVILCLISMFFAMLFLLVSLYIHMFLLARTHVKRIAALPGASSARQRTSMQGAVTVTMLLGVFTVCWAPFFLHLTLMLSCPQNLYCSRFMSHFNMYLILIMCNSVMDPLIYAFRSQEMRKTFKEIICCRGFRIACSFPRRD
Description: cAMP agonist activity assay performed at CEREP (HTRF), MC5. To be noted: determined by CEREP, CHO-K1 cells; for EC50: cAMP HTRF; for Emax: control Alpha-MSH, read-out: Emax percent hMC5r* (percent of the maximal response obtained with the positive control). How it is done:
(§1) Evaluation of the agonist activity of compounds at the melanocortin receptors was determined by measuring their effects on cAMP production using the HTRF detection method at CEREP (Eurofins CEREP SA, Celle-Lévescault, France). The cells were suspended in HBSS buffer (Invitrogen) complemented with 20 mM HEPES (pH 7.4) and 500 μM IBMX, then distributed in microplates and incubated in the presence of HBSS (basal control), the test compound or the reference agonist. Incubation time, temperature, cell number, reference agonist and cell line information are included in the Table 1 below. For stimulated control measurement, separate assay wells contain reference compound. Following incubation, the cells are lysed and the fluorescence acceptor (D2-labeled cAMP) and fluorescence donor (anti-cAMP antibody labeled with europium cryptate) were added. After 60 minutes at room temperature, the fluorescence transfer was measured at excitation wavelength 337 nm and emission wavelengths 620 and 665 nm using a microplate reader (Envision, Perkin Elmer). The cAMP concentration was determined by dividing the signal measured at 665 nm by that measured at 620 nm (ratio).
(§2) The results are expressed as a percent of the control response to 1 μM of the reference. The standard reference agonist is tested in each experiment at several concentrations to generate a concentration-response curve from which its EC50 value is calculated.
(In general: TR-FRET usually uses a lanthanide donor and a delayed reading to cut background.)

Test [2] has as its target T1, hMC5r. The test is described as follows: Agonist activity (EC50/Emax) at hMC5r, not determined by CEREP. Particulars: for Emax: read-out: Emax percent hMC5r (percent of the maximal response obtained with the positive control).
The target of test [3] is hMC3r (Homo sapiens, UniProt P41968). The test is described as follows: Alternative assay for agonist activity (intracellular cAMP), HEK-293 cells, recombinant MC3r. Also on record: expressed in transfected cells; host or cells: HEK-293. To be noted: for Emax: HEK293, not CEREP, reference NDP-α-MSH, read-out: Emax percent hMC3r (percent of the maximal response obtained with the positive control); for EC50: not CEREP, cAMP HTRF. How it is done:
(§3) Accumulation of intracellular cAMP was examined as a measure of the ability of the peptides to elicit a functional response in either HEK-293 cells that express recombinant MC3r or MC4r or B16-F10 (mouse) and HBL (human) cell lines that express native MC1 r. Confluent cells were detached from culture plates by incubation in enzyme-free cell dissociation buffer. Dispersed cells were suspended in Hank's Balanced Salt Solution containing 10 mM HEPES (pH 7.5), 1 mM MgCl2, 1 mM glutamine, 0.5% albumin and 0.3 mM 3-isobutyl-1-methyl-xanthine (IBMX), a phosphodiesterase inhibitor. The cells were dispensed into 96-well plates at a density of 0.5×10^5 cells per well and pre-incubated for 10 minutes. Cells were exposed for 15 minutes at 37° C. to peptides dissolved in DMSO (final DMSO concentration of 1%) at a concentration range of 0.05-5000 nM in a total assay volume of 200 μL. NDP-α-MSH was used as the reference agonist. cAMP levels were determined by an HTRF® cAMP cell-based assay system from Cisbio Bioassays utilizing cryptate-labeled anti-cAMP and D2-labeled cAMP, with plates read on a Perkin-Elmer Victor plate reader at […]. Data analysis was performed by nonlinear regression analysis with Graph-Pad Prism® software. The maximum efficacies of the test peptides were compared to that achieved by the reference melanocortin agonist NDP-α-MSH.

Test [4] has as its target hMC4r (Homo sapiens, UniProt P32245). Description: Alternative assay for agonist activity (intracellular cAMP), HEK-293 cells, recombinant MC4r. Also on record: expressed in transfected cells; host or cells: HEK-293. To be noted: for Emax: HEK293, not CEREP, reference NDP-α-MSH, read-out: Emax percent hMC4r (percent of the maximal response obtained with the positive control); for EC50: not CEREP, cAMP HTRF. How it is done: as §3

Test [5] addresses T2, mMC1r (Mus musculus, UniProt Q01727). Description: Alternative assay for agonist activity (intracellular cAMP), B16-F10 cells, native MC1r. Also on record: B16-F10 (mouse) and HBL (human) cell lines that express native MC1 r; endogenous in cells; host or cells: B16-F10 mouse melanoma cells. To be noted: not CEREP; for EC50: cAMP HTRF; for Emax: reference NDP-α-MSH, read-out: Emax percent mMC1r (percent of the maximal response obtained with the positive control). How it is done: as §3

For test [6], the target named is T2, mMC1r. Description: cAMP agonist activity assay performed at CEREP (HTRF), MC1. To be noted: determined by CEREP, B16-F1 cells; for EC50: cAMP HTRF; for Emax: control NDP-alpha-MSH, read-out: Emax percent mMC1r* (percent of the maximal response obtained with the positive control). How it is done:
as §1, §2

The target of test [7] is T3, hMC1r (Homo sapiens, UniProt Q01726).
T3 construct: B16-F10 (mouse) and HBL (human) cell lines that express native MC1 r; endogenous in cells; host or cells: HBL human melanoma cells
T3 sequence (Q01726 whole entry): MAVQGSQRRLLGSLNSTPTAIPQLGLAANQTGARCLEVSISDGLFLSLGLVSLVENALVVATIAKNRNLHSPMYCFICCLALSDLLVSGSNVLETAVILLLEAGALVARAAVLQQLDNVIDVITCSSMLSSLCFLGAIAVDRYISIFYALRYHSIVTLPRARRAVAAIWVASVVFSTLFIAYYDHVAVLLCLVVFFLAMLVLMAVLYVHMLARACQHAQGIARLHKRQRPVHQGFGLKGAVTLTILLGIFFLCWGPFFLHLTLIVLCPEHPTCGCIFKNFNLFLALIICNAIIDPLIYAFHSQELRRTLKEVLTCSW
The test is described as follows: Alternative assay for agonist activity (intracellular cAMP), HBL cells, native MC1r. To be noted: not CEREP; for EC50: cAMP HTRF; for Emax: reference NDP-α-MSH, read-out: Emax percent hMC1r (percent of the maximal response obtained with the positive control). As to the method: as §3

Chain of hMC4r (P32245 whole entry): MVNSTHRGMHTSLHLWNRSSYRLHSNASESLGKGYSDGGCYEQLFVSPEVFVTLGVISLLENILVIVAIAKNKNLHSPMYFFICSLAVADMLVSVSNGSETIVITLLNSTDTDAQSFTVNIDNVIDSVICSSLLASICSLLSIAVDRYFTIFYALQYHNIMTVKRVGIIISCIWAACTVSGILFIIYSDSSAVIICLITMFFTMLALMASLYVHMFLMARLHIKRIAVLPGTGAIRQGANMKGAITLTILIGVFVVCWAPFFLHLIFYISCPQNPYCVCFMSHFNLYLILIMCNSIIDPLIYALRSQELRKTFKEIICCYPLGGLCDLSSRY
T2 sequence (Q01727 whole entry): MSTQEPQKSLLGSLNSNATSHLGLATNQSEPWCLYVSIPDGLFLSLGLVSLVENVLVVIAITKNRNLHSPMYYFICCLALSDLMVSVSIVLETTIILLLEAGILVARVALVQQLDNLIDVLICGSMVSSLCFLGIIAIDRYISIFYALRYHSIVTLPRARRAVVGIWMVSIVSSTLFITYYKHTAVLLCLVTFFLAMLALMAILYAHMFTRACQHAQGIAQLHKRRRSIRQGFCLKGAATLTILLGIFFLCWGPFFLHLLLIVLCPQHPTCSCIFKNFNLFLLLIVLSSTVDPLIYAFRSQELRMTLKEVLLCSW
Chain of hMC3r (P41968 whole entry): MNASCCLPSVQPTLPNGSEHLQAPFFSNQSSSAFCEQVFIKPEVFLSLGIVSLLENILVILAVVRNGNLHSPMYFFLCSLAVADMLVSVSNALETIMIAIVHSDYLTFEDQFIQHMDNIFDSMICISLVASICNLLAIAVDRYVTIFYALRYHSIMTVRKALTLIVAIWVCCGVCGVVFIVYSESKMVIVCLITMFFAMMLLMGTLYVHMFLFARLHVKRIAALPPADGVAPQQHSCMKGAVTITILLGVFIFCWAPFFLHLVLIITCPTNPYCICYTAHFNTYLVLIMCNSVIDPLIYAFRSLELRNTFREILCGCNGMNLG

One may read the EC50 as the midpoint of the concentration-response curve. The term Emax denotes the greatest response seen or fitted, relative to the assay's reference. Turning to `CCCC[C@H](NC(C)=O)C(=O)N[C@H]1CNC(=O)CCNC(=O)[C@H](Cc2c[nH]c3ccccc23)NC(=O)[C@H](CCCNC(=N)N)NC(=O)[C@@H](Cc2cccc3ccccc23)NC(=O)C2CC(OCc3ccccc3)CN2C1=O` (stereo partly drawn) [Peptide 7] (Ac-[Nle][Dap][ξHyp](Bn)[d1Nal]RW[βAla]; lactam 2-C), the EC50 in test [1] was 2 nM; in test [2], 1 nM; in test [3], > 10 µM; in test [4], 5 nM; in test [5], 17 nM. Also, the Emax in test [1] was 97%; in test [2], 71%; in test [3], 7%; in test [4], 26%; in test [5] it was 74%.

For `CC(=O)N[C@@H](CCCNC(=N)N)C(=O)N[C@H]1CCNC(=O)CCCCNC(=O)[C@H](Cc2c[nH]c3ccccc23)NC(=O)[C@H](CCCNC(=N)N)NC(=O)[C@@H](Cc2ccccc2)NC(=O)[C@H](CC(N)=O)NC1=O` [Peptide 10] (Ac-R[Dab]N[dF]RW[Ava]; lactam 2-C), the EC50 in test [1] came to 1600 nM; in test [2], 207 nM; in test [3] it was 0.006 µM; in test [4], 0.9 nM; in test [5], 113 nM. The Emax turned out to be 71% in test [1]; 54% in test [2]; 63% in test [3]; 111% in test [4]; 94% in test [5].

As for `CC(=O)N[C@@H](CCCNC(=N)N)C(=O)N[C@H]1CCNC(=O)CCCCNC(=O)[C@H](Cc2c[nH]c3ccccc23)NC(=O)[C@H](CCCNC(=N)N)NC(=O)[C@@H](Cc2ccc(F)cc2)NC(=O)[C@H](Cc2c[nH]cn2)NC1=O` [Peptide 16], the EC50 was 0.01 nM in test [6]; 0.71 nM in test [1]; 0.6 nM in test [7]; 2 nM in test [2]; 0.9 nM in test [4]. The Emax in test [6] is 108%; in test [1], 60%; in test [7] it was 106%; in test [2], 58%; in test [4], 102%.

Take `CCCCCC(=O)N[C@H]1CNC(=O)CNC(=O)[C@H](CCCNC(=N)N)NC(=O)[C@@H](Cc2ccccc2)NC(=O)[C@H](Cc2c[nH]cn2)NC1=O` [Peptide 17] (Hexanoyl-[Dap]H[dF]RG; lactam 1-C): the EC50 in test [6] was 1300 nM; in test [1] it was > 10000 nM; in test [7], 10 nM; in test [3], > 10 µM; in test [4], 7800 nM; in test [5] it was 1000 nM. Further, the Emax in test [6] is 83%; in test [1], -0.5%; in test [7], 94%; in test [3], 12%; in test [4], 14%; in test [5], 84%.

For `CCCCCC(=O)N[C@H]1CNC(O)CCNC(=O)[C@H](CCCNC(=N)N)NC(=O)[C@@H](Cc2ccccc2)NC(=O)[C@H](Cc2c[nH]cn2)NC1=O` (stereo partly drawn) [Peptide 18], the EC50 in test [6] is 180 nM; in test [1], > 10000 nM; in test [7], 5 nM; in test [3] it was 7.68 µM; in test [4], 2100 nM; in test [5] it was 90 nM. Besides, the Emax came out at 90% in test [6]; 3% in test [1]; 89% in test [7]; 16% in test [3]; 68% in test [4]; 99% in test [5].

In the case of `CCCCCC(=O)N[C@H]1CNC(=O)CCCCNC(=O)[C@H](CCCNC(=N)N)NC(=O)[C@@H](Cc2ccccc2)NC(=O)[C@H](Cc2c[nH]cn2)NC1=O` [Peptide 19] (Hexanoyl-[Dap]H[dF]R[Ava]; lactam 1-C), the EC50 in test [6] was 2600 nM; in test [1] it was > 10000 nM; in test [7] it was 3 nM; in test [3], > 10 µM; in test [4] it was 4300 nM; in test [5] it was 350 nM. Besides, the Emax in test [6] came to 74%; in test [1] it was 5%; in test [7], 92%; in test [3], 0.5%; in test [4], 70%; in test [5], 80%.
